13 compounds from patent US20150238601A1, “TREATMENT OF OCULAR DISORDERS” (KADMON CORPORATION, LLC, priority 2012, published 2015) can be followed below.

For experiment [1], the target named is T1, ROCK1 (Homo sapiens, UniProt Q13464). Description: biochemical.
Description: Dose response curves for Rho-kinase inhibition were derived from a Millipore immuno-based 96 well plate assay (Millipore catalog number CSA001). Purified active ROCK1 and ROCK2 were obtained from Invitrogen (catalog numbers ROCKI, PV3691 and ROCK2, PV3759). The kit components include assay plates, which are pre-coated with recombinant MYPT1, which contains a specifically phosphorylatable Thr696. The inhibitory activities of compounds are measured according to the manufactures protocol. […] The assay proceeds at 300 Celsius for 30 minutes with gentle shaking at 120 rpm. The assay is terminated by washing of the plate 3 times with Tris-buffered saline and tween wash buffer. Anti-phospho-MYPT1 (Thr696) antibody is added to each well to detect the phosphorylated substrate and incubated for 1 hour at room temperature after which HRP conjugated anti-rabbit IgG secondary is added for 1 hour at room temperature. After washing the assay is developed using a substrate reagent and the absorbance is read at 450 nm on a Tecan Infinite M1000 reflecting the relative remaining ROCK phosphorylation activity.
The test system of experiment [2] is subfoveal choroidal neovascularization (CNV) lesion secondary to AMD. Description: study in subjects with subfoveal CNV lesion secondary to AMD. The format is in vivo, human. The conditions noted are these: Example 43 with Mab 106 vs Mab 106, six months. How it is done:
A study is conducted of 50 men and women having subfoveal choroidal neovascularization (CNV) lesion secondary to AMD. […] Subjects are observed over six months to determine intraocular inflammation, macular thickness, and the status of macular perfusion. Visual acuity is also measured over the time period.

Experiment [3] concerns the target T1, ROCK1. Description: Invitrogen Z'-LYTE Kinase Assay. Details: purchased Invitrogen PV3691. The class given is biochemical. The following applies: 5 uM ATP, ROCK1 0.18 ug/mL.
Description: (§2) Dose response curves for Rho-kinase inhibition were derived from a Invitrogen Z′-LYTE™ Kinase Assay Kit (Invitrogen catalog number PV3793). Purified active ROCK1 and ROCK2 were obtained from Invitrogen (catalog numbers ROCK1, PV3691 and ROCK2, PV3759). The kit components include a coumarin and fluorescein labeled peptide based on myosin light chain 2 ([sequence]), a proprietary protease containing development reagent and a proprietary Stop buffer used to terminate the development reaction. The inhibitory activities of compounds are measured according to the manufactures protocol. […] The assay proceeds at room temperature for 1 hour followed by the addition of development reagent, and further incubation for 1 hour at room temperature. […] By comparing the emission ratios of the test samples against control samples, percent phosphorylation values are calculated and the concentration of inhibitor that produces 1/2 inhibition of kinase activity (IC50) is determined using Prism.
In another experiment the target is T2, ROCK2 (Homo sapiens, UniProt O75116).
T2 construct: purchased Invitrogen PV3759
T2 sequence (O75116 whole entry): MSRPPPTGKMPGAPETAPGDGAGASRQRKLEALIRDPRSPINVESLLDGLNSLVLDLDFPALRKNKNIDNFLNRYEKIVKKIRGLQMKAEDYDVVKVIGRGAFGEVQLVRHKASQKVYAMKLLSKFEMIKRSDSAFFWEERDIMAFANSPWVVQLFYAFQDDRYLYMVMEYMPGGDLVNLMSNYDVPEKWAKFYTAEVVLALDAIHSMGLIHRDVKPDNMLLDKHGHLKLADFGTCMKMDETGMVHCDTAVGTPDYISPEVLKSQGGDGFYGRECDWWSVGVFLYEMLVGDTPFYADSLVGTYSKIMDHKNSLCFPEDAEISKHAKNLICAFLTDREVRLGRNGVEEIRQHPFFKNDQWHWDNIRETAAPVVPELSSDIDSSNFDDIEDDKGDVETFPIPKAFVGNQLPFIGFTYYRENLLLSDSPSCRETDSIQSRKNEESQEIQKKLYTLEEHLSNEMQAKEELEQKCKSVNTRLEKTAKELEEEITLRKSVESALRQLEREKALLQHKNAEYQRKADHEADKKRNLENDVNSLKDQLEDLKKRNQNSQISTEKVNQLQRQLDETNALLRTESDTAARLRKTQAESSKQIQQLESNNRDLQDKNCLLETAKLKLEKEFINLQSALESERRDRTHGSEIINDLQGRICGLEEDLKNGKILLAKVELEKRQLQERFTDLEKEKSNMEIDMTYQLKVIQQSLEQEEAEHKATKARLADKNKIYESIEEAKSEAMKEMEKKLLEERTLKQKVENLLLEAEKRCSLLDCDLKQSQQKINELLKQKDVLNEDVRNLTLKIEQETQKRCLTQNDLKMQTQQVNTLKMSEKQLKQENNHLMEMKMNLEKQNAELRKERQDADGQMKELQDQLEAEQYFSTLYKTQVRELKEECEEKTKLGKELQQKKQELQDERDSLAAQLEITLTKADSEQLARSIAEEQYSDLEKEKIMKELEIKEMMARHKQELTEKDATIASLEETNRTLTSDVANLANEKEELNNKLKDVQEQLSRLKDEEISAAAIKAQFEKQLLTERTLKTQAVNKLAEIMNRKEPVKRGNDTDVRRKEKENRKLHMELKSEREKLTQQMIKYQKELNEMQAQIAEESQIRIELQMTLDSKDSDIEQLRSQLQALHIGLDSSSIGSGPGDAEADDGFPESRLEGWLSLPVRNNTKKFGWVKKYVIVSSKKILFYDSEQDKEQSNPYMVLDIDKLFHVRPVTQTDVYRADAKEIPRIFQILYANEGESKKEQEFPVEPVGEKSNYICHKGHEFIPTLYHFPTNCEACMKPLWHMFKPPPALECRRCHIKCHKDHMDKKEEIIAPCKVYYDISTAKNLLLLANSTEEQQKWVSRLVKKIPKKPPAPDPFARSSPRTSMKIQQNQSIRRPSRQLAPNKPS
Description: Invitrogen Z'-LYTE Kinase Assay. The format is biochemical.

Experiment [4] concerns proliferative diabetic retinopathy. Description: preoperative treatment of proliferative diabetic retinopathy / diabetic macular edema. The format is in vivo, human. The conditions noted are these: with pegaptanib, compared to pegaptanib alone, intravitreal, 8 weeks after surgery. How it is done:
The agents are administered by intravitreal injection. Subjects are evaluated over 8 weeks following surgery as to post operative rebleed, macular edema post injection, and pre- and post-injection levels of VEGF165. It is expected that compared to pegaptanib alone, administration of compound 154 results in reduced bleeding and macular edema.

The test system of a further experiment is STAT3 phosphorylation. Description: STAT3 phosphorylation in T cells. The class given is cell-based. Here is the method: STAT3 plays a critical role in Th17 differentiation via regulation of RORγt expression and direct binding to the IL-17 and IL-21 promoters. […] In a different experiment, cells we cultured under Th17-skewing conditions for 5 days and then treated with the ROCK2 selective inhibitor for 3 hours.

Experiment [5] relates to CD4+ human T cells. Description: cytokine secretion of anti-CD3/CD28 stimulated CD4+ T cells in vitro. The format is cell-based. The conditions noted are these: anti-CD3/CD28 stimulation. The source says: (§1) Activation of resting T cells, resulting in cytokine secretion and proliferation, involves two distinct signals from antigen-presenting cells (APCs), mimicked by co-stimulation of the T cell receptor (TCR)/CD3 complex and the CD28 receptor.

Experiment [6] has as its system CD4+ T cells from peripheral blood of RA patients. Briefly: CD4+ T cells of RA patients stimulated with anti-CD3/CD28 ex vivo. The class given is cell-based, human.
Experiment [7] deals with CD4+ human T cells. Description: T cell proliferation in response to TCR stimulation in vitro. The class given is cell-based.
Excerpt: as §1

The mark [8] stands for this setting: Z'-LYTE, 12 uM ATP, ROCK2 0.8 ug/mL, read-out: ROCK2 IC50.
The mark [9] stands for this setting: 2 RA patients, intracellular staining.
Setting [10] is: RA patients, ex vivo, TCR stimulation.

Counter-ions that a name gives are not always drawn. Like-named read-outs stand apart in the source and are kept apart here.

T1 sequence (Q13464 whole entry): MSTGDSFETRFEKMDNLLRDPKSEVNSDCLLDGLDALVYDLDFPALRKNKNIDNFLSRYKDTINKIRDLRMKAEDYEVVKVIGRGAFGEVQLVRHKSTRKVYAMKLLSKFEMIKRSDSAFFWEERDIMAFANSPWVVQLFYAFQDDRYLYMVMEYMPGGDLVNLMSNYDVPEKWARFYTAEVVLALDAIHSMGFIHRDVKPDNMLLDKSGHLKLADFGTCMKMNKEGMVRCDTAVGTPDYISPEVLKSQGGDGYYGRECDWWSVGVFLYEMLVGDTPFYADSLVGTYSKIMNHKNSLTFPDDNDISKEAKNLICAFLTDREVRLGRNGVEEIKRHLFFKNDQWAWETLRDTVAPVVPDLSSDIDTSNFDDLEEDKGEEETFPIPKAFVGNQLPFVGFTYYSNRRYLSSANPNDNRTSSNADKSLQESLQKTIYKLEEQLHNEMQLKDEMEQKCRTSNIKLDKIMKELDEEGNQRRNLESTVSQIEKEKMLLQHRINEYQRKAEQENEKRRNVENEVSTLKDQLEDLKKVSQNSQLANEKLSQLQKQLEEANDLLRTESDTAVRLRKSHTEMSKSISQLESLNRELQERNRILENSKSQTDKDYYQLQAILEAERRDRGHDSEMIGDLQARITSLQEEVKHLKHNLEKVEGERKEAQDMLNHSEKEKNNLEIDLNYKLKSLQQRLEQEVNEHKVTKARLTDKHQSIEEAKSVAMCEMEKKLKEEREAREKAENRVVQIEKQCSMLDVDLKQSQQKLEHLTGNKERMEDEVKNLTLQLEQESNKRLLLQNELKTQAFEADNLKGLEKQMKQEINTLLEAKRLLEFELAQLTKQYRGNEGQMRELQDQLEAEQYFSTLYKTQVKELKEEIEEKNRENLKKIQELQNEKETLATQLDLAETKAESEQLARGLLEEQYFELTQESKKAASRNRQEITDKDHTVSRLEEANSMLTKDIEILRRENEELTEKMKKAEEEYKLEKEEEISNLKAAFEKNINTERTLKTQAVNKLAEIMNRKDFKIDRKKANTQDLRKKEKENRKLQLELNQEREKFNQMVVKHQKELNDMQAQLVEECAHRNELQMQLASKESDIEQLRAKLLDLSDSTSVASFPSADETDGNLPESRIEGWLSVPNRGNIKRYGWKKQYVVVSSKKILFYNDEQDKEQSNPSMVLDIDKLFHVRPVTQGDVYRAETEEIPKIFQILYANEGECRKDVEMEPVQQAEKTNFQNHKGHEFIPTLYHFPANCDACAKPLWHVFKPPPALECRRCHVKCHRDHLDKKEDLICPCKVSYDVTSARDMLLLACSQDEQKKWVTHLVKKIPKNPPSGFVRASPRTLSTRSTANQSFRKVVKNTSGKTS
Description for ROCK2: as §2

Broadly, the IC50 is the concentration that inhibits the measured activity by half. One may read the Ki as a measure of affinity in units of concentration, obtained from inhibition or displacement. For `O=C(COc1cccc(-c2nccc(Nc3ccc4[nH]ncc4c3)n2)c1)N[C@@H]1CCNC1` [Example 12, (R)-2-(3-(4-((1H-indazol-5-yl)amino)pyrimidin-2-yl)phenoxy)-N-(pyrrolidin-3-yl)acetamide HCl salt], on ROCK1 [1], half-maximal inhibition (IC50) required 1770 nM and the affinity corresponds to a Ki of 70 nM.
For `CC(C)NC(=O)COc1cccc(-c2ncc(OCCN(C)C)c(Nc3ccc4[nH]ncc4c3)n2)c1` [Example 43, 2-(3-(4-((1H-indazol-5-yl)amino)-5-(2-(dimethylamino)ethoxy)pyrimidin-2-yl)phenoxy)-N-isopropylacetamide TFA salt], in experiment [2], the intraocular inflammation entry is reported as “less” and the macular perfusion result is reported as “less”. Moreover, 750 nM corresponded to half-maximal inhibition on ROCK1 [3] (IC50). Further, the IC50 on ROCK2 (setting [8]) came out at 25 nM.
`CC(C)NC(=O)COc1cccc(-c2nc(Nc3ccc4[nH]ncc4c3)cc(N3CCCNCC3)n2)c1` [Example 121, 2-(3-(4-((1H-indazol-5-yl)amino)-6-(1,4-diazepan-1-yl)pyrimidin-2-yl)phenoxy)-N-isopropylacetamide]: the concentration for half-maximal inhibition (IC50) at ROCK1 [3] was 1390 nM; at ROCK2 (setting [8]), 13 nM.
Turning to `O=C(Oc1cccc(-c2nccc(Nc3ccc4[nH]ncc4c3)n2)c1)N1CCOCC1` [Example 129, 3-(4-((1H-indazol-5-yl)amino)pyrimidin-2-yl)phenyl morpholine-4-carboxylate], the 50% inhibitory concentration (IC50) against ROCK1 [3] is 1100 nM; at ROCK2 (setting [8]) it was 10 nM.
On to `CN(C)C(=O)Oc1cccc(-c2nccc(Nc3ccc4[nH]ncc4c3)n2)c1` [Example 131, 3-(4-((1H-indazol-5-yl)amino)pyrimidin-2-yl)phenyl dimethylcarbamate], for which the half-maximal inhibitory concentration (IC50) against ROCK2 is 39 nM.
For `c1cc(OCc2ccncc2)cc(-c2nccc(Nc3ccc4[nH]ncc4c3)n2)c1` [Example 136, N-(2-(3-(pyridin-4-ylmethoxy)phenyl)pyrimidin-4-yl)-1H-indazol-5-amine], the IC50 at ROCK1 [3] amounted to 170 nM.
Regarding `COCCOc1cccc(-c2nccc(Nc3ccc4[nH]ncc4c3)n2)c1` [Example 138, N-(2-(3-(2-methoxyethoxyl)phenyl)pyrimidin-4-yl)-1H-indazol-5-amine], the IC50 against ROCK1 [3] worked out at 1980 nM; on ROCK2 (setting [8]), 8 nM.
For the compound `COc1cccc(-c2nccc(Nc3ccc4[nH]ncc4c3)n2)c1` [Example 140, N-(2-(3-methoxyphenyl)pyrimidin-4-yl)-1H-indazol-5-amine], the IC50 against ROCK1 [3] stood at 1910 nM; on ROCK2 (setting [8]), 55 nM.
As to `c1cc(OCCN2CCOCC2)cc(-c2nccc(Nc3ccc4[nH]ncc4c3)n2)c1` [Example 144, N-(2-(3-(2-morpholinoethoxyl)phenyl)pyrimidin-4-yl)-1H-indazol-5-amine], the results for the IC50 against ROCK1 [3] and on ROCK2 (setting [8]) were 1930 nM and 58 nM, respectively.
Take `CC(N)c1cccc(-c2nccc(Nc3ccc4[nH]ncc4c3)n2)c1` (centres unmarked) [Example 147, N-(2-(3-(1-aminoethyl)phenyl)pyrimidin-4-yl)-1H-indazol-5-amine]: the IC50 at ROCK1 [3] is over 2000 nM; on ROCK2 (setting [8]), over 5500 nM.
With `CC(C)NCCOc1cccc(-c2nccc(Nc3ccc4[nH]ncc4c3)n2)c1` [Example 154, N-(2-(3-(2-(isopropylamino)ethoxy)phenyl)pyrimidin-4-yl)-1H-indazol-5-amine], in experiment [4], the “bleeding (post operative rebleed)” value is on record as “reduced” and the macular edema result was “reduced”.
Regarding `CC(C)NC(=O)COc1cccc(-c2nc(Nc3ccc4[nH]ncc4c3)cc(C(F)(F)F)n2)c1` [Example 169], the IC50 on ROCK1 [3] and on ROCK2 (setting [8]) was over 10000 nM in each case.
Regarding `CC(C)NC(=O)COc1cccc(-c2nc(Nc3ccc4[nH]ncc4c3)c3ccccc3n2)c1` [SLx-2119], the “phosphorylation of STAT3” value in the experiment with STAT3 phosphorylation (T cells pre-treated, then stimulated with anti-CD3/CD28 antibodies) was “reduced”. In the experiment on STAT3 phosphorylation (Th17-skewing conditions 5 days, then treated 3 hours), the STAT3 phosphorylation result is reported as “reduced”. In the experiment with CD4+ human T cells [5] (dose-dependent), the IL-17 secretion entry is “significantly inhibited” and the IL-21 secretion entry was “significantly inhibited”. For the same compound, the “inhibition of IFN-γ secretion” value in the experiment on CD4+ human T cells [5] (high dose 10 μM) is “less robust and significant only at high dose”. In experiment [6] (setting [9]), the “frequency of IFN-γ-producing cells” value is given as “significantly reduced” and the “frequency of IL-17-producing cells” value is listed as “significantly reduced”. In [6] (setting [10]), the IFN-γ secretion result was “significantly down-regulated”, the IL-17 secretion result is on record as “significantly down-regulated” and the IL-21 secretion result was “significantly down-regulated”. Also, the “ability of T cells to proliferate in response to TCR stimulation” value with CD4+ human T cells [7] is given as “down-regulated”.
